Assay [1] deals with T1, human LARP1 LaM domain (residues 323–410) (Homo sapiens, UniProt Q6PKG0).
T1 construct: human LARP1 LaM domain (residues 323–410); made in house; host or cells: E. coli
Kind of assay: Isothermal titration calorimetry (ITC) of RNA ligands binding LARP1 (323-410). The conditions noted are these: for Rel. aff. (affinity relative to AAAAAA): Figure 2B, higher = tighter binding than A6; for binding to the LaM domain by ITC (in words): LaM 40 μM in cell, cyclic dinucleotide 730-860 μM in syringe. How it is done: ITC experiments were performed on the VP-ITC titration calorimeter (Malvern Instruments Ltd) except where noted. […] All experiments were carried out at 20°C with 29 injections of 10 µl. Results were analysed using ORIGIN software (MicroCal) and fitted to a binding model with a single set of identical sites, except where noted.
(In ITC the heat of successive injections is recorded.)

Assay [2] deals with T2, LARP1 323-410 Q333A (Homo sapiens, UniProt Q6PKG0, Q410A).
T2 construct: ITC Data Collection and Analysis for LARP1 323-410 Q333A; His-tag; made in house; host or cells: E. coli
Kind of assay: ITC of RNA ligands binding LARP1 323-410 Q333A. The conditions noted are these: Q333A mutant. How it is done:
(§1) ITC experiments were performed on the VP-ITC titration calorimeter (Malvern Instruments Ltd) except where noted. The syringe was loaded with 300 µM RNA sample, while the sample cell contained 20–30 µM LARP1 (323–410) sample. All experiments were carried out at 20°C with 29 injections of 10 µl. Results were analysed using ORIGIN software (MicroCal) and fitted to a binding model with a single set of identical sites, except where noted.
(§2) Table S3. ITC Data Collection and Analysis for LARP1 323-410 Q333A
(§3) RNA Kd, nM relative to DH, kcal mol-1 DS, cal mol-1 K-1 Conc., µM
(§4) 1Data acquired on iTC200 (Malvern Instruments Ltd).

The target in assay [3] is T3, LARP1 323-410 Q333A (Homo sapiens, UniProt Q6PKG0).
T3 construct: ITC Data Collection and Analysis for LARP1 323-410 Q333A; His-tag; made in house; host or cells: E. coli
Kind of assay: ITC of RNA ligands binding LARP1 323-410 Q333A. The conditions noted are these: Q333A mutant; LaM 30 (cell), RNA 300-600 (syringe). How it is done: as §1, §2, §3, §4

Assay [4] addresses T1, human LARP1 LaM domain (residues 323–410). Kind of assay: NMR titration of single nucleotides into 15N-labelled LARP1 (323-410), chemical shift changes. The conditions noted are these: for Kd: 0.1 mM 15N-LARP1 (323-410), 10 mM MES pH 6.3, 100 mM NaCl, 25°C, fit accounts for bound ligand, two nucleotide binding sites, read-out: Kd, binding affinity estimated from chemical shift change (I364 amide) as a function of nucleotide concentration. It is filed as binding. How it is done:
We carried out NMR titrations with single nucleotides binding to^15N-labelled LARP1 LaM to isolate the individual nucleotide interactions (Figure 1A). The addition of nucleotides caused spectral changes similar to those observed with the hexamer A6 but with smaller shifts and fewer signals affected (Suppl. Figure S1). […] The signals with the largest changes were the amide of Ile364 and side chain amides of Gln333.
At 200 µM, 5´-GMP shifted the Gln333 signal twice as much as 5´-AMP. […] We used the size of the chemical shift change as a function of nucleotide concentration to estimate binding affinities (Figure 1C). […] This had the advantage that it also provided an estimate of the binding stoichiometry. For 5´-GMP, the stoichiometry was measured to be 2.04 with an affinity of 40 µM. […] This is at odds with the affinities of oligonucleotides measured by isothermal titration calorimetry (ITC).
NMR samples were exchanged into 10 mM MES pH 6.3, 100 mM NaCl, 1 mM TCEP. For NMR titrations, nucleotides were added to 0.1 mM^15N-labelled LARP1 (323–410) to final molar ratios of 5:1. All NMR experiments were performed at 25°C using a Bruker 600 MHz spectrometer. NMR spectra were processed using NMRPipe and analysed with SPARKY [51]. Binding affinities were measured by fitting the observed chemical shift changes accounting for bound ligand with a stoichiometry of two nucleotide binding sites.

Assay [5] has the same target. As to conditions: ITC of RNA oligonucleotides; cited from earlier work.
[6] abbreviates: ITC, 20°C, LaM 20-30 µM in cell, RNA 300 µM in syringe, single set of identical sites, read-out: Kd.
Setting [7] is: ITC, 20°C, LaM in cell, RNA in syringe.
Setting [8] is: Table S1, LaM in cell, RNA in syringe.
Where [9] appears, read: reversed titration: RNA 15 (cell), LaM 300 (syringe).
Where [10] appears, read: ITC, 20°C, LaM in cell, RNA in syringe, read-out: Kd.

Results on 15 compounds are retold here after paper PMC11259064, “Enhanced binding of guanylated poly(A) RNA by the LaM domain of LARP1” (RNA Biology, 2024).

Where “and” joins values, the source holds several entries; their conditions need not be identical. Equal entries are not always repeated.

With 5´-APAPAPAPAPA-3´ [AAAAAA], in assay [1], the “Rel. aff. (affinity relative to AAAAAA)” value was 1.0. In addition, in assay [1] (setting [6]), the Kd stood at 0.25 µM. In addition, in assay [1] (setting [7]), the ΔH was -19.9 kcal/mol and the ΔS was -37.6 cal mol^-1 K^-1. In addition, the “Affinity relative to A6” value in assay [1] (setting [8]) is listed as 1.
In assay [2], 5´-APAPAPAPGPA-3´ [AAAAGA] displayed a ΔH of -10.2 kcal/mol and a ΔS of -11.9 cal mol-1 K-1. In assay [3], the Kd turned out to be 10 ± 6 µM. The “Rel. aff. (affinity relative to AAAAAA)” value in assay [1] amounted to 3.2. In assay [1] (setting [7]), this compound returned a ΔH of -29.5 kcal/mol and a ΔS of -68.0 cal mol^-1 K^-1. The “Affinity relative to A6” value in assay [1] (setting [8]) stood at 0.32.
`Nc1ncnc2c1ncn2[C@@H]1O[C@H](COP(=O)(O)O)[C@@H](O)[C@H]1O` [5'-AMP, 5´-AMP]: the Kd in assay [4] was 130 µM.
In the case of 5´-UPUPUPUPUPU-3´ [UUUUUU], the ΔH was -11.0 kcal/mol in assay [2] and -21.4 kcal/mol in assay [1] (setting [7]). Moreover, the ΔS in assay [2] is on record as -19.2 cal mol-1 K-1; in assay [1] (setting [7]) it was -46.6 cal mol^-1 K^-1. The Kd worked out at 100 ± 30 µM in assay [3] and 1.8 ± 0.1 µM in assay [1] (setting [6]). The “Affinity relative to A6” value in assay [1] (setting [8]) is on record as 7.2. Further, the “fold weaker binding affinity than A6” value in assay [5] is on record as 11 fold.
With `Nc1ncnc2c1ncn2[C@@H]1O[C@H](CO)[C@@H](OP(=O)(O)O)[C@H]1O` [3'-AMP, 3´-AMP], in assay [4] (NMR titration), the “Ile364 chemical shift change (in words)” value is reported as “not appreciably shifted” and the “shift of the Ile364 peak, fold smaller than with 5´-AMP” value stood at 30 fold.
For 5´-APAPAPGPAPA-3´ [AAAGAA], in assay [1], the “Rel. aff. (affinity relative to AAAAAA)” value worked out at 1.8. Also, the Kd in assay [1] (setting [6]) worked out at 0.14 ± 0.02 µM. In assay [1] (setting [7]), this compound showed a ΔH of -27.7 kcal/mol and a ΔS of -63.2 cal mol^-1 K^-1. Also, the “Affinity relative to A6” value in assay [1] (setting [8]) came out at 0.56.
With `Nc1nc2c(ncn2[C@@H]2O[C@@H]3COP(=O)(O)O[C@H]4[C@@H](O)[C@H](n5cnc6c(N)ncnc65)O[C@@H]4COP(=O)(O)O[C@H]3[C@H]2O)c(=O)[nH]1` [3',3'-cGAMP, 3‘,3’-cGAMP], in assay [1], the Kd was 0.7 ± 0.3 µM and the “binding to the LaM domain by ITC (in words)” value was “sub-micromolar affinity”. In assay [1] (Table S1), the “Affinity relative to A6 (site 1)” value came to 2.8, the “Affinity relative to A6 (site 2)” value is given as 440, the “ΔH (site 1)” value was 0 kcal/mol and the “ΔH (site 2)” value amounted to 4.8 kcal/mol. For the same compound, in assay [1] (Table S1), the “ΔS (site 1)” value was 28.3 cal mol-1 K-1 and the “ΔS (site 2)” value was determined as 34.4 cal mol-1 K-1. Besides, the Kd in assay [1] (read-out: Kd2, second site, fit with two independent sets of sites, LaM 40 μM + ligand 730-750 μM) turned out to be 110 µM. For the same compound, the Kd in assay [1] (read-out: Kd (site 2), Table S1, LaM 40 (cell), ligand 730-750 (syringe)) is greater than 10 µM.
Take 5´-GPG-3´ [GG]: the Kd result was “not fitted” in assay [1] (ITC, 20°C, LaM 20-30 µM in cell, RNA 300 µM in syringe, single set of identical sites); “Not fittable” in assay [1] (setting [7]); 2.8 µM and ~3 µM in assay [1] (reversed titration: GG (15 µM) in cell + LaM (300 µM) in syringe, read-out: Kd). Moreover, in assay [1] (Table S1, reversed titration: RNA 15 (cell), LaM 300 (syringe)), the “Affinity relative to A6” value is reported as 11.2. Also, the ΔH in assay [1] (setting [9]) was -34.1 kcal/mol. In assay [1] (setting [9]), this compound displayed a ΔS of -91.1 cal mol-1 K-1.
In the case of `Nc1nc2c(ncn2[C@@H]2O[C@@H]3CO[P@](=O)(O)O[C@H]4[C@@H](O)[C@H](n5cnc6c(=O)[nH]c(N)nc65)O[C@@H]4CO[P@](=O)(O)O[C@H]3[C@H]2O)c(=O)[nH]1` [cyclic-di-GMP, Cyclic-di-GMP], the “binding to the LaM domain by ITC (in words)” value in assay [1] was “sub-micromolar affinity”. Also, in assay [1] (Table S1), the “Affinity relative to A6 (site 1)” value is given as 1.2, the “Affinity relative to A6 (site 2)” value is listed as 220, the “ΔH (site 1)” value turned out to be 0 kcal/mol and the “ΔH (site 2)” value worked out at 2.0 kcal/mol. Also, in assay [1] (Table S1), the “ΔS (site 1)” value stood at 29.8 cal mol-1 K-1 and the “ΔS (site 2)” value was found to be 26.5 cal mol-1 K-1. Besides, the Kd in assay [1] (Table S1, LaM 40 (cell), ligand 730-750 (syringe), read-out: Kd (site 1)) was 0.3 ± 0.3 µM. Besides, in assay [1] (Table S1, LaM 40 (cell), ligand 730-750 (syringe), read-out: Kd (site 2)), the Kd is greater than 10 µM. Also, the Kd in assay [1] (second site, fit with two independent sets of sites, LaM 40 μM + ligand 730-750 μM, read-out: Kd2) was 54 µM.
Turning to 5´-APAPAPAPAPSA-3´ [(SP)-AAAAAPSA], in assay [1] (setting [7]), the ΔH was -23.1 kcal/mol and the ΔS is reported as -57.1 cal mol^-1 K^-1. For the same compound, the Kd in assay [1] (setting [10]) amounted to 17 µM. Besides, the “fold lower affinity of the (SP)-phosphorothioate” value in assay [1] (ITC, Figure 5D, compared with the (RP)-phosphorothioate) is on record as 60 fold. In addition, the “Affinity relative to A6” value in assay [1] (setting [8]) amounted to 68.
Turning to 5´-APAPAPAPAPSA-3´ [(RP)-AAAAAPSA], the Kd in assay [1] (setting [6]) was determined as 0.29 µM. In addition, in assay [1] (setting [7]), the ΔH is -19.4 kcal/mol and the ΔS is -36.2 cal mol^-1 K^-1. Besides, the “Affinity relative to A6” value in assay [1] (setting [8]) was 1.16.
For the compound `Nc1nc2c(ncn2[C@@H]2O[C@H](COP(=O)(O)O)[C@@H](O)[C@H]2O)c(=O)[nH]1` [5'-GMP, 5´-GMP], in assay [4], the Kd is 40 µM. Further, in assay [4] (at 200 µM nucleotide), the “shift of the Gln333 signal relative to 5´-AMP” value is “twice as much”. The binding stoichiometry in assay [4] (from fit of NMR chemical shift changes) came out at 2.04.
As to 5´-APAPAPAPAPG-3´ [AAAAAG], the ΔH in assay [2] is -27.8 kcal/mol; in assay [1] (setting [7]), -27.5 kcal/mol. Further, the ΔS in assay [2] is on record as -73.2 cal mol-1 K-1; in assay [1] (setting [7]), -62.3 cal mol^-1 K^-1. For the same compound, the Kd in assay [3] was found to be 19 ± 2 µM; in assay [1] (setting [6]), 0.13 ± 0.02 µM. For the same compound, the “Rel. aff. (affinity relative to AAAAAA)” value in assay [1] amounted to 1.9.
For the compound 5´-APG-3´ [AG], in assay [1] (setting [7]), the ΔH is -23.9 kcal/mol and the ΔS was -56.2 cal mol^-1 K^-1. The Kd in assay [1] (setting [10]) was 3.1 µM and ~3 µM. The “Affinity relative to A6” value in assay [1] (setting [8]) worked out at 12.4.
Turning to `Nc1ncnc2c1ncn2[C@@H]1O[C@H](COP(=O)(O)O)[C@@H](OP(=O)(O)O)[C@H]1O` [3',5'-ADP, 3´,5´-ADP], in assay [4] (NMR titration), the “Gln333 signal change (in words)” value is recorded as “broadened the Gln333 signal beyond detection” and the “Ile364 chemical shift change (in words)” value was “small shift”.
